Source: paper PMC11346428, “Biophysical and structural analyses of the interaction between the SHANK1 PDZ domain and an internal SLiM” (Biochemical Journal, 2024)
One block for each molecule: values may come before it. Residues, ends and D or L forms follow the SMILES beside them. *: point of attachment. 5FAM = O=C1OC2(c3ccc(O)cc3Oc3cc(O)ccc32)c2ccc(C(=O)*)cc21; Ahx = NCCCCCC(=O)O

Assays:
[1] = molecular target: T1, SHANK1 PDZ domain (656–762) (Homo sapiens, UniProt Q9Y566); test: Fluorescence anisotropy direct titration; type: binding; conditions: 50 mM NH4OAc, pH 6.5
T1 construct: Human SHANK1 PDZ domain (656–762) was prepared as described previously; GST (N, cleaved yes); made in house; host or cells: E. coli BL21 Gold (pGEX-6P-2)
T1 sequence (Q9Y566 656-762): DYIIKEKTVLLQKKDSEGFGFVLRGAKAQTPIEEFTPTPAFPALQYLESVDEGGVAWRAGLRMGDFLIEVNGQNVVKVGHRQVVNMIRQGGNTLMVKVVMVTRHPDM
Procedure: Direct titration assays were performed in 384-well plates (Greiner Bio-one). Two hundred micromolars of SHANK1 protein was dialyzed into the assay buffer before use. Twenty microlitres of the assay buffer (50 mM ammonium-acetate, pH 6.5) was first added to each well. Twenty microlitres of the target protein sample was then added to the first column, followed by a two-fold serial dilution over 24 points. Twenty microlitres of 50 nM tracer peptide or 20 µl of the assay buffer was added to the corresponding row wells. The titration was performed in triplicate. […] The P (perpendicular intensity) and S (parallel intensity) channels raw data were obtained. The data processing and formulae are shown in the Supporting Information 2.6.
(§1) . Reversed Phase C18 column, mobile phase A (0.1% TFA in water), mobile phase B
2.6 Equations for data calculation in fluorescent anisotropy direct titration The intensity and anisotropy were calculated by using Equations 1 and 2. The data was fitted to a sigmoidal logistic model to obtain r min and rmax, and the L b was further calculated (Equation 3). Finally, the data was fitted to a nonlinear curve model (Equation 4), to obtain the value of KD.
I = total intensity, r = anisotropy, P = perpendicular intensity, S = parallel intensity, G is an instrument gain factor, L b = fraction ligand bound, λ = Ibound/Iunbound = 1, [FL] = concentration of fluorescent ligand, k = K D and x = [added titrant].
2.7 Equations for data calculation in fluorescent anisotropy competition assays The calculated average anisotropy values and their standard deviation were fitted using a sigmoidal logistic model (Equation 5). y = r = anisotropy, xo = mid-point of the curve between the r max and rmin plateau. […]

[2] = molecular target: T1, SHANK1 PDZ domain (656–762); test: Fluorescence anisotropy competition assay; type: binding; conditions: 50 nM tracer, 1 μM SHANK1, 50 mM NH4OAc, pH 6.5, triplicate
Procedure: FA competition assays were also performed in 50 mM NH4OAc, pH 6.5 buffer in 384-well plates. Twenty microlitres of the assay buffer was first added to wells. Twenty microlitres of 5000 µM competitor peptides was added to the first columns, followed by a twofold serial dilution over 16 points. Three micromolars of SHANK1 protein was dialyzed into the assay buffer before use. Twenty microlitres of the SHANK1 protein was added to each well to give a final protein concentration of 1 μM. Twenty microlitres of 50 nM tracer peptides or 20 µl of the assay buffer was added to corresponding row wells. The titration was performed in triplicate. Plates were read immediately with an excitation and emission wavelength of 480 and 535 nm respectively (dichroic mirror 505 nm), and after an hour or after 24 h on the plate reader with the same parameters as described above. The data processing and formulae are shown in the Supporting Information 2.7.
Time (min) Mobile phase A (%) Mobile phase B (%) Flow (mL/min) […]
as §1
2.6 Equations for data calculation in fluorescent anisotropy direct titration The intensity and anisotropy were calculated by using Equations 1 and 2. The data was fitted to a sigmoidal logistic model to obtain r min and rmax, and the L b was further calculated (Equation 3). […]

[3] = molecular target: T1, SHANK1 PDZ domain (656–762); test: Isothermal titration calorimetry (ITC); conditions: 25 mM Tris, pH 7.5, 150 mM NaCl, 25°C; 500 μM peptide injected into 50 μM protein; one-binding site model
Procedure: A Microcal ITC200i instrument (Malvern) was employed to carry out the ITC experiments. Prior to use, SHANK1 protein was dialyzed against 20 mM Tris, 150 mM NaCl, pH 7.5 buffer. […] Sixty microlitres of every test peptide was placed in the syringe to titrate against 350 µl of 50 µM Shank1 protein in the cell. The injection volumes were 2 µl each, injection time 6 s, and a 120 s delay between each injection for 20 injections in total. The titration for peptide into buffer was subtracted from the titration for peptide into protein to account for the heat of peptide dilution. Raw data was processed in the software Microcal Origin 8 and fit to a one-binding site model.

FAM-Ahx-EESTSFQGP-CONH2 = molecular target: T2, FAM-Ahx-EESTSFQGP-CONH2; test: fluorescence anisotropy direct titration
T2 chain: {FAM-Ahx}-EESTSFQGP-NH2

Ac-EESTSFQGP-CONH2 = molecular target: T3, Ac-EESTSFQGP-CONH2; test: fluorescence anisotropy competition (tracer FAM-Ahx-EESTSFQGP-CONH2)
T3 chain: Ac-EESTSFQGP-NH2

[4] = 50 nM labelled peptide as tracer, plates read after 24 hr incubation at room temperature, read-out: KD (FA direct titration, Figure S1)

Molecule: CC[C@H](C)[C@H](NC(=O)[C@H](CC(C)C)NC(=O)[C@H](CCC(=O)O)NC(=O)[C@@H]1CCCN1C(=O)[C@H](Cc1ccccc1)NC(=O)CCCCCNC(=O)c1ccc2c(c1)C(=O)OC21c2ccc(O)cc2Oc2cc(O)ccc21)C(=O)N[C@@H](CCC(N)=O)C(=O)N[C@@H](CC(=O)O)C(=O)N[C@H](C(=O)N[C@@H](CO)C(=O)N[C@H](C(=O)N[C@@H](CO)C(=O)N[C@@H](Cc1ccccc1)C(=O)N[C@@H](CO)C(=O)N[C@H](C(=O)N[C@H](C(=O)N[C@@H](CCCNC(=N)N)C(N)=O)[C@@H](C)O)[C@@H](C)O)[C@@H](C)O)[C@@H](C)O [FAM-Ahx-ARAP31414-1429-CONH2] ({5FAM-Ahx}-FPELIQDTSTSFSTTR-NH2)
Kd [1, 4]: 12.2 ± 8.3 µM

Molecule: C[C@@H](O)[C@H](NC(=O)[C@H](CO)NC(=O)[C@H](CCC(=O)O)NC(=O)[C@H](CCC(=O)O)NC(=O)CCCCCNC(=O)c1ccc2c(c1)C(=O)OC21c2ccc(O)cc2Oc2cc(O)ccc21)C(=O)N[C@@H](CO)C(=O)N[C@@H](Cc1ccccc1)C(=O)N[C@@H](CCC(N)=O)C(=O)NCC(=O)N1CCC[C@H]1C(N)=O ({5FAM-Ahx}-EESTSFQGP-NH2)
Kd ([1]; FA direct titration of SHANK1 into 50 nM tracer peptide, 25°C, triplicate, read-out: KD): 0.81 ± 0.08 µM

B1: SHANK1 PDZ domain 656-762 (protein)
chain: T1 sequence (Q9Y566 656-762)
Kd (FAM-Ahx-EESTSFQGP-CONH2): 0.81 µM | IC50 (Ac-EESTSFQGP-CONH2): 3.9 µM

Further lines, results first:

IC50 ([2]; competition against SHANK1/FAM-Ahx-EESTSFQGP-CONH2 interaction): 3.9 ± 0.1 µM | IC50 ([2]; competition against SHANK1/FITC-Ahx-EAQTRL-COOH interaction): 3.3 ± 0.2 µM | Kd [3]: 0.96 µM
Molecule: Ac-EESTSFQGP-NH2

Kd [1, 4]: 3.6 ± 0.7 µM
Molecule: CC(C)[C@H](NC(=O)CNC(=O)[C@H](CCC(N)=O)NC(=O)[C@H](Cc1ccccc1)NC(=O)[C@H](CO)NC(=O)[C@@H](NC(=O)[C@H](CO)NC(=O)[C@H](CCC(=O)O)NC(=O)CCCCCNC(=O)c1ccc2c(c1)C(=O)OC21c2ccc(O)cc2Oc2cc(O)ccc21)[C@@H](C)O)C(=O)N[C@@H](CCCCN)C(=O)N[C@@H](CO)C(=O)NCC(=O)N1CCC[C@H]1C(=O)N[C@H](C(=O)N[C@@H](CO)C(=O)N[C@H](C(=O)N[C@@H](C)C(N)=O)C(C)C)C(C)C [FAM-Ahx-ELFN1579-594-CONH2] ({5FAM-Ahx}-ESTSFQGVKSGPVSVA-NH2)
